Assay results as given in publication PMC9827630, “Intra-colony venom diversity contributes to maintaining eusociality in a cooperatively breeding ant” (BMC Biology, 2023).
Where “and” joins values, the source holds several entries; their conditions need not be identical. Equal entries are not always repeated. Where two headings read alike, the source gives them in different places. Where no end group is shown, it is not given here.

Assays:
[1] = test system: Klebsiella pneumoniae ATCC 700603; experiment: Antimicrobial growth inhibition (CO-ADD); type: cell-based; settings: absorbance at 600 nm; for Max response ± SEM: percentage growth inhibition, mean ± SEM; for MIC: sigmoidal dose-response fit of growth inhibition
Experimental: (§1) Antimicrobial and cytotoxicity assays were performed by CO-ADD (The Community for Antimicrobial Drug Discovery, Institute for Molecular Bioscience, The University of Queensland). […] Percentage growth inhibition was calculated using negative controls (media only) and positive controls (no peptide). For the hemolysis assays, human whole blood was washed three times with 3 volumes of 0.9% NaCl and then resuspended in 0.9% NaCl to a concentration of 0.5 × 10^8 cells/mL. Cells were incubated for 1 h at 37°C with or without the peptide. After incubation, plates were centrifuged at 1000 g for 10 min to pellet cells and debris and hemolysis determined by measuring the supernatant absorbance at 405 nm.

[2] = test system: Staphylococcus aureus ATCC 43300; experiment: Antimicrobial growth inhibition (CO-ADD); type: cell-based; settings: for Max response ± SEM: percentage growth inhibition, mean ± SEM; for Max response ± SEM / MIC: absorbance at 600 nm; for MIC: sigmoidal dose-response fit of growth inhibition
Experimental: as §1

[3] = test system: Escherichia coli ATCC 25922; experiment: Antimicrobial growth inhibition (CO-ADD); type: cell-based; settings: absorbance at 600 nm; for Max response ± SEM: percentage growth inhibition, mean ± SEM; for MIC: sigmoidal dose-response fit of growth inhibition
Experimental: as §1

[4] = test system: Acinetobacter baumannii ATCC 19606; experiment: Antimicrobial growth inhibition (CO-ADD); type: cell-based; settings: for Max response ± SEM: percentage growth inhibition, mean ± SEM; for Max response ± SEM / MIC: absorbance at 600 nm; for MIC: sigmoidal dose-response fit of growth inhibition
Experimental: as §1

[5] = test system: Pseudomonas aeruginosa ATCC 27853; experiment: Antimicrobial growth inhibition (CO-ADD); type: cell-based; settings: absorbance at 600 nm; for Max response ± SEM: percentage growth inhibition, mean ± SEM; for MIC: sigmoidal dose-response fit of growth inhibition
Experimental: as §1

F11 = experiment: Ion permeability F11; type: cell-based, mouse; settings: ions listed as permeant; - = none
HEK = experiment: Ion permeability HEK; type: cell-based, Human; settings: ions listed as permeant; - = none
HAP1 cells = experiment: Cell viability assay, resazurin; type: cell-based
Experimental: In addition to the cytotoxicity assays performed by CO-ADD, we screened the synthetic peptides for toxicity in cell viability assays using HAP1, MM96L, and HEK293T cells. peptides were reconstituted in 100% DMSO then diluted in cell media (HAP1: IMDM (Sigma Aldrich) with 10% FBS and 1% Penicillin/Streptomycin (P/S); MM96L: RPMI (Gibco) with 10% FBS, 1% P/S and 1% GlutaMAX (Gibco); HEK293T: DMEM high glucose (Gibco), with 10% FBS and 1% P/S. Trypsinized cells ([…]) were seeded in each well of a 96-well plate. 0.01 to 1000 μM peptide was added to each well after 24 h, and the cells incubated for an additional 74 h. After incubation, the medium was aspirated from each well and 150 μL of fresh medium containing a 0.002% solution of resazurin (Sigma-Aldrich) was added to the wells and incubated for 4 h at 37 °C. The absorbance was measured at 570 nm using a microplate spectrophotometer (FLUOstar Omega, BMG Labtech, Germany). Percentage cell viability at concentrations of 10 and 100 μM peptide were compared with negative control by one-way ANOVA Dunnett’s multiple comparisons test (GraphPad Prism8).

[6] = test system: Human embryonic kidney cells ATCC CRL-1573; experiment: Cytotoxicity assay (CO-ADD), resazurin; type: cell-based; settings: resazurin fluorescence; for Max response ± SEM: percentage growth inhibition, 37°C 5% CO2, mean ± SEM; for CC50 (concentration at 50% cytotoxicity): sigmoidal dose-response fit
Experimental: as §1

[7] = test system: Candida albicans ATCC 90028; experiment: Antifungal growth inhibition (CO-ADD); type: cell-based; settings: absorbance at 530 nm; for Max response ± SEM: percentage growth inhibition, mean ± SEM; for MIC: sigmoidal dose-response fit of growth inhibition
Experimental: as §1

[8] = test system: Cryptococcus neoformans var. grubii H99; ATCC 208821; experiment: Antifungal growth inhibition (CO-ADD); type: cell-based; settings: for Max response ± SEM: percentage growth inhibition, difference in absorbance 600 and 570 nm after resazurin, 35°C 2 h, mean ± SEM; for MIC: sigmoidal dose-response fit of growth inhibition, resazurin read-out
Experimental: as §1

[9] = test system: Female fruit flies (D. melanogaster strain Canton-S); experiment: Fruit fly injection assay (lethality, paralysis, climbing); type: in vivo, Drosophila melanogaster; settings: 5 nmol/g injected, climbing assay 5 min after injection; significant versus control
Experimental: Female fruit flies (D. melanogaster strain Canton-S) were injected four to six days post-emergence. Female flies were used because their larger size makes injection easier. Groups of eight female flies were assayed in triplicate for each dose tested. Injection needles were formed from glass capillary tubes (#3-000-203-G/X, Drummond, Birmingham, AL, USA) using a micropipette puller (Sutter Instrument Co. Model P-97), with the fine tip manually trimmed afterwards using scissors. Needles then were filled with mineral oil, connected to a Nanoliter 2000 microinjector ([…], Bensenville, IL USA) equipped with a foot pedal, and ~1 μL of peptide solution or water aspirated. Each group of flies were immobilized by cooling for approximately 2 min on ice, and then decanted on the top of the ‘injection stage’, a petri dish filled with ice. Under a dissecting microscope, each fly was carefully impaled on the lateral thorax behind the wing, and 50.6 nL of venom peptide or water was injected. After injection, each group of flies were returned to their 5 mL plastic tube at room temperature and their behavior observed.

Human red blood cells = experiment: Hemolysis assay (CO-ADD); type: cell-based; settings: 1 h at 37°C; for HC50 (concentration at 50% hemolytic activity): absorbance at 405 nm, sigmoidal dose-response fit; for Max response ± SEM: hemolysis, washed human blood 0.5 × 10^8 cells/mL in 0.9% NaCl, supernatant absorbance at 405 nm, mean ± SEM
Experimental: as §1

[10] = test system: F11 (mouse neuroblastoma × rat dorsal root ganglion (DRG) neuron hybrid) cells; experiment: Calcium imaging of F11 cells (FLIPR); type: cell-based; settings: increase in [Ca2+]i
Experimental: F11 (mouse neuroblastoma × rat dorsal root ganglion (DRG) neuron hybrid) cells were cultured as previously described. Cells were maintained on Ham’s F12 media supplemented with 10 % fetal bovine serum, 100 μM hypoxanthine, 0.4 μM aminopterin, and 16 μM thymidine (Hybri-MaxTM, Sigma Aldrich). 384-well imaging plates (Corning, Lowell, MA, USA) were seeded 48 h prior to imaging resulting in 90 – 95% confluence at imaging. Cells were incubated for 30 min with Calcium 4 assay component A, as per the manufacturer’s instructions (Molecular Devices, Sunnyvale, CA) in physiological salt solution (PSS; composition in mM: 140 NaCl, 11.5 D-glucose, 5.9 KCl, 1.4 MgCl2, 1.2 NaH2PO4, 5 NaHCO3, 1.8 CaCl2, 10 HEPES) at 37°C. […] Signals were read every second for 10 s before, and 300 s after, the addition of peptides in PSS supplemented with 0.1% bovine serum albumin. All data represent mean ± SEM of a representative assay in triplicate. Fluorescence changes on peptide addition were compared to addition of negative control solution (0.1% BSA in PSS). The resulting maximum-minimum fluorescence in the 300 s period after peptide addition was recorded as the response.

panel of microbes = experiment: Antimicrobial screening, summary over the panel of microbes; type: cell-based
Experimental: as §1

[11] = max-min fluorescence over 300 s, read-out: EC50 (F11 cells, Table S2)
[12] = all strains of the panel (for Rm54a and Rm55a: strains other than S. aureus)

Substance | Max response ± SEM [1] | MIC [1] [µM] | Max response ± SEM [2] | MIC [2] [µM] | Max response ± SEM [3] | MIC [3] [µM] | Max response ± SEM [4] | MIC [4] [µM] | Max response ± SEM [5] | MIC [5] [µM] | ion permeability F11 (F11) | ion permeability HEK (HEK) | Cytotoxicity to HAP cells (HAP1 cells) | Max response ± SEM [6] | CC50 (concentration at 50% cytotoxicity) [6] | Max response ± SEM [7] | MIC [7] [µM] | Max response ± SEM [8] | MIC [8] [µM] | HC50 (concentration at 50% hemolytic activity) (Human red blood cells) | also measured
ILPALIPVFASLLPWAIKKF-NH2 [Rm55b] | 12 ± 1 | >14 | 103 ± 1 | ≤0.11 | 11 ± 1 | >14 | 98 ± 0 | 14 | 3 ± 1 | >14 | Ca2+,Na+,Th+ | Ca2+,Na+,Th+ | cytotoxic to HAP cells | 98 ± 1 | 2.6 µM | 3 ± 0 | >14 | 86 ± 4 | 11 | 7.4 µM | HAP cell viability (HAP1 cells; 10 μM peptide, n = 3 per group): significantly reduced HAP cell viability; Motor behavior (climbing assay) [9]: disrupted motor behavior; Max response ± SEM (Human red blood cells): 40 ± 3; EC50 [10, 11]: 4 µM
FWLKGGRGDG-NH2 [Rm53a/b] | 5 ± 0 | >29 | 5 ± 1 and 7 ± 2 | >29 | 4 ± 1 and 3 ± 1 | >29 | 5 ± 1 and 4 ± 2 | >29 | 12 ± 4 and 11 ± 5 | >29 |  |  |  |  |  |  | >29 |  | >29 |  | Growth inhibition over the microbial strains examined (panel of microbes; [12]): no inhibitory activity
FLPFLIPVIASLVSSLK-NH2 [Rm55a] | 8 ± 1 | >17 | 103 ± 2 | ≤0.14 | 4 ± 1 | >17 | 24 ± 1 | >17 | 10 ± 1 | >17 | Ca2+,Na+,Th+ | Ca2+,Na+ | cytotoxic to HAP cells | 51 ± 0 | >17 (CC50) uM | 3 ± 0 | >17 | -10 ± 0 | >17 | >17 (HC50) uM | Inhibition of S. aureus (in words) [2]: complete inhibition; EC50 ([2]; summary of Table S2): ≤ 0.14 µM; HAP cell viability (HAP1 cells; 100 μM peptide, n = 3, mean ± SEM): 24.6 ± 8.1%; Growth inhibition over the microbial strains examined (panel of microbes; [12]): not affecting any of the other strains examined; Max response ± SEM (Human red blood cells): 15 ± 6; EC50 ([10]; max – min fluorescence, n = 3, four-parameter Hill equation, read-out: EC50 (effect on F11 cells, Fig. 5)): 9.2 µM
ALWDTIKKWVAKVLPLVKNALK-NH2 [Rm20a] | 71 ± 29 | >13 | 102 ± 2 | 1.6 | 100 ± 0 | 13 | 100 ± 1 | ≤0.10 | 14 ± 2 | >13 | Ca2+,Na+,Th+ | Ca2+,Na+,Th+ | cytotoxic to HAP cells | 57 ± 5 | 11 µM | 8 ± 7 | >13 | 88 ± 1 | 0.79 | >13 (HC50) uM | EC50 ([4]; summary of Table S2): ≤ 0.1 µM; HAP cell viability (HAP1 cells; 10 μM peptide, n = 3 per group): significantly reduced HAP cell viability; Growth inhibition over the microbial strains examined (panel of microbes; all microbial strains except Pseudomonas aeruginosa and Candida albicans): complete or near-complete growth inhibition of all microbial strains; EC50 [10, 11]: 8.1 µM
RNVPRWFTPRL-NH2 [Rm52d] | 5 ± 0 | >22 | 12 ± 6 | >22 | 1 ± 2 | >22 | 5 ± 2 | >22 | 7 ± 0 | >22 |  |  |  |  |  | 2 ± 1 | >22 | -13 ± 5 | >22 |  | Growth inhibition over the microbial strains examined (panel of microbes; [12]): no inhibitory activity
